Assay results reported in patent publication EP4458820A1 (Shanghai Institute of Materia Medica, Chinese Academy of …, priority 2021, dated 2023).
Several values for one entry are separate records, joined by “and”; a condition that tells them apart may be missing. Equal entries are not always repeated. Where two headings read alike, the source gives them in different places.

Columns and labels:
thyroid axis = assay: inhibitory effect on the thyroid axis in C57 mice; format: in vivo; details: administered at high doses
[1] = pharmacokinetic studies in mice; format: in vivo; set-up: AUC(0-t) / AUClast: concentration or dose not given beside the values; details: for F: bioavailability p.o. versus i.v.
Protocol: The preliminary pharmacokinetic studies in mice or rats of the target compounds with excellent activity obtained from the above studies were conducted to investigate the pharmacokinetic properties of the compounds under oral, intraperitoneal and intravenous administration in detail, and to calculate the parameters of in vivo exposure (AUC), peak concentration (Cmax), time to peak (Tmax), half-life period (T1/2) and bioavailability (F), which would provide a clue for further structural modification and optimization of the compounds, as well as a basis for in vivo dosage design.

[2] = tested on: THRβ receptor downstream genes; assay: acute pharmacodynamic evaluation: THRβ receptor downstream gene expression in liver after single administration; format: in vivo, C57 mice
From the text: (§1) Mice or rats were used for single oral administration, and liver and heart were taken at 3 time points after administration to detect the expression of THRβ receptor downstream genes (DIO1, ME, CYP7α1, LDLR) in the target organ-liver, and to detect the expression of THRβ receptor downstream genes (DIO1, MHCα) in the organ involved in toxicity-heart.

MHCα = assay: preliminary safety assessment: MHCα expression in the heart of C57 mice; format: in vivo; details: after administration
From the text: as §1

[3] = tested on: CDAHFD feed-induced NAFLD model mice; assay: pharmacodynamic evaluation in CDAHFD feed-induced NAFLD model mice; format: in vivo; details: after 2 and 4 weeks of long-term administration
[4] = tested on: cardiac DIO1 and MHCα genes; assay: in vivo safety evaluation: downstream gene expression in the heart of thyroidectomized rats
Protocol: Normal SD rats, which underwent thyroidectomy and recovered for 1-2 weeks, were grouped by body weight and then given the test compounds or the positive compound MGL-3196. Cardiac tissues were taken after euthanasia 6 h after the administration of the drug to examine the expression of the αMHC gene in the heart after single dose of the drug.

[5] = tissue distribution studies in mice; format: in vivo; details: for concentration at 3 h / concentration at 8 h / concentration at 24 h: mouse, po
[6] = tested on: high-fat feed -induced golden hamster model; assay: pharmacodynamic evaluation in high-fat feed-induced golden hamster model; format: in vivo; details: 10 mg/kg, after 21 days of administration
[7] = mouse, in vivo, iv, individual animal
[8] = mouse, in vivo, po, individual animal
[9] = mouse, in vivo, po, individual animal, read-out: Cmax
[10] = mouse, in vivo, po, individual animal, read-out: Tmax
[11] = mouse, in vivo, po, mean, read-out: Cmax
[12] = mouse, in vivo, po, mean, read-out: Tmax
[13] = Table 4, oral 10 mg/kg, 3 h, individual animal, 10 mg/kg
[14] = Table 4, oral 10 mg/kg, 8 h, individual animal, 10 mg/kg
[15] = Table 4, oral 10 mg/kg, 24 h, individual animal, 10 mg/kg
[16] = Table 6, oral 10 mg/kg, 3.00 h, individual animal, 10 mg/kg
[17] = Table 6, oral 10 mg/kg, 8.00 h, individual animal, 10 mg/kg
[18] = Table 6, oral 10 mg/kg, 24.0 h, individual animal, 10 mg/kg

Cc1cc(-c2ccc(F)cc2)nc2ccc(Oc3c(Cl)cc(-n4nc(C#N)c(=O)[nH]c4=O)cc3Cl)cc12 [Compound 3, 2-(3,5-Dichloro-4-((2-(4-fluorophenyl) -4-methylquinolin-6-yl)oxy)phenyl) -3,5-dioxo-2,3,4,5-tetrahydro-1,2,4-triazine-6-carbonitrile]
thyroid hormone levels (thyroid axis): did not affect | F [1]: 36.3% | AUClast ([1]; i.v., individual animal): 106.173 µg·h/mL and 104.125 µg·h/mL | CL_obs ([1]; i.v., individual animal): 0.67 mL/min/kg and 0.76 mL/min/kg and 0.75 mL/min/kg | T1/2 ([1]; i.v., individual animal): 5.10 h and 6.62 h | Vss_obs ([1]; i.v., individual animal): 0.289 L/kg and 0.253 L/kg and 0.315 L/kg | CL_obs ([1]; i.v., mean): 0.73 mL/min/kg | Vss_obs ([1]; i.v., mean): 0.286 L/kg | AUC(0-t) [1, 7]: 118 µg·h/mL | half-life [1, 7]: 6.4 h | AUC(0-t) ([1]; mouse, in vivo, iv, mean): 109 µg·h/mL | half-life ([1]; mouse, in vivo, iv, mean): 6.04 h | AUC(0-t) [1, 8]: 62.5 µg·h/mL | half-life [1, 8]: 4.31 h | Cmax [1, 9]: 9650 ng/mL | Tmax [1, 10]: 1 h | AUC(0-t) ([1]; mouse, in vivo, po, mean): 79.4 µg·h/mL | half-life ([1]; mouse, in vivo, po, mean): 4.71 h | Cmax [1, 11]: 10500 ng/mL | Tmax [1, 12]: 0.83 h | AUClast ([1]; p.o., individual animal): 100.901 µg·h/mL and 74.686 µg·h/mL | Cmax ([1]; p.o., individual animal): 12800 ng/mL and 9108 ng/mL | T1/2 ([1]; p.o., individual animal): 4.80 h and 5.02 h | Tmax ([1]; p.o., individual animal): 0.50 h | hepatic DIO1 gene expression ([2]; 3h after administration): significantly up-regulated | hepatic DIO1 gene expression ([2]; after 8 h of administration, compared with the negative control group): still effective | upregulation of MHCα in the heart (MHCα): did not result in upregulation

Cc1cc(C(F)(F)F)nc2ccc(Oc3c(Cl)cc(-n4nc(C#N)c(=O)[nH]c4=O)cc3Cl)cc12 [Compound 38, 2-(3,5-Dichloro-4-((2-trifluoromethyl-4-methylquinolin-6-yl)oxy)phenyl) -3,5-dioxo-2,3,4,5-tetrahydro-1,2,4-triazine-6-carbonitrile]
plasma TC levels ([3]; 1 mg/kg dosage group): decreased | plasma TC levels ([3]; 10 mg/kg dosage group): decreased | effects on cardiac DIO1 and MHCα genes [4]: neither compound 38 nor MGL3196 had significant effects | Heart [5, 13]: 115 ng/g and 199 ng/g and 113 ng/g | Liver [5, 13]: 3778 ng/g and 3241 ng/g and 3353 ng/g | Plasma [5, 13]: 8371 ng/mL and 7102 ng/mL and 6639 ng/mL | Heart [5, 14]: 39.9 ng/g and 72.2 ng/g and 26.4 ng/g and 63.3 ng/g | Liver [5, 14]: 582 ng/g and 895 ng/g and 264 ng/g and 729 ng/g | Plasma [5, 14]: 2473 ng/mL and 4555 ng/mL and 2005 ng/mL and 3847 ng/mL | Heart ([5]; Table 4, oral 10 mg/kg, 24 h, individual animal): BLQ | Liver [5, 15]: 29.5 ng/g and 27.8 ng/g and 14.5 ng/g and 16.3 ng/g | Plasma [5, 15]: 281 ng/mL and 192 ng/mL and 88.6 ng/mL and 93.6 ng/mL | Heart [5, 16]: 215 ng/g and 169 ng/g | Liver [5, 16]: 1478 ng/g and 1383 ng/g | Plasma [5, 16]: 5796 ng/mL and 4534 ng/mL | Heart [5, 17]: 196 ng/g and 116 ng/g | Liver [5, 17]: 614 ng/g and 469 ng/g | Plasma [5, 17]: 4487 ng/mL and 2490 ng/mL | Heart [5, 18]: 6.36 ng/g and 13.7 ng/g and 20.5 ng/g | Liver [5, 18]: 23.3 ng/g and 39.5 ng/g and 56.7 ng/g | Plasma [5, 18]: 165 ng/mL and 335 ng/mL and 412 ng/mL | concentration at 3 h ([5]; heart, 10 mg/kg, Table 4, 3 h, individual animal, read-out: Heart): 189 ng/g | concentration at 3 h ([5]; heart, 10 mg/kg, Table 4, 3 h, mean, read-out: Heart Mean): 154 ng/g | concentration at 8 h ([5]; heart, 10 mg/kg, Table 4, 8 h, mean, read-out: Heart Mean): 50.5 ng/g | concentration at 24 h ([5]; heart, 10 mg/kg, Table 4, 24 h, mean, read-out: Heart Mean): 0 ng/g | concentration at 3 h ([5]; heart, 10 mg/kg, Table 6, 3.00 h, individual animal, read-out: Heart): 197 ng/g | concentration at 3 h ([5]; heart, 10 mg/kg, Table 6, 3.00 h, mean, read-out: Heart Mean): 194 ng/g | concentration at 8 h ([5]; heart, 10 mg/kg, Table 6, 8.00 h, individual animal, read-out: Heart): 139 ng/g | concentration at 8 h ([5]; heart, 10 mg/kg, Table 6, 8.00 h, mean, read-out: Heart Mean): 150 ng/g | concentration at 24 h ([5]; heart, 10 mg/kg, Table 6, 24.0 h, mean, read-out: Heart Mean): 13.5 ng/g | concentration at 3 h ([5]; liver, 10 mg/kg, Table 4, 3 h, individual animal, read-out: Liver): 4300 ng/g | concentration at 3 h ([5]; liver, 10 mg/kg, Table 4, 3 h, mean, read-out: Liver Mean): 3670 ng/g | concentration at 8 h ([5]; liver, 10 mg/kg, Table 4, 8 h, mean, read-out: Liver Mean): 617 ng/g | concentration at 24 h ([5]; liver, 10 mg/kg, Table 4, 24 h, mean, read-out: Liver Mean): 22 ng/g | concentration at 3 h ([5]; liver, 10 mg/kg, Table 6, 3.00 h, individual animal, read-out: Liver): 1880 ng/g | concentration at 3 h ([5]; liver, 10 mg/kg, Table 6, 3.00 h, mean, read-out: Liver Mean): 1580 ng/g | concentration at 8 h ([5]; liver, 10 mg/kg, Table 6, 8.00 h, individual animal, read-out: Liver): 689 ng/g | concentration at 8 h ([5]; liver, 10 mg/kg, Table 6, 8.00 h, mean, read-out: Liver Mean): 591 ng/g | concentration at 24 h ([5]; liver, 10 mg/kg, Table 6, 24.0 h, mean, read-out: Liver Mean): 39.8 ng/g | concentration at 3 h ([5]; plasma, 10 mg/kg, Table 4, 3 h, individual animal, read-out: Plasma): 9340 ng/mL | concentration at 3 h ([5]; plasma, 10 mg/kg, Table 4, 3 h, mean, read-out: Plasma Mean): 7860 ng/mL | concentration at 8 h ([5]; plasma, 10 mg/kg, Table 4, 8 h, mean, read-out: Plasma Mean): 3220 ng/mL | concentration at 24 h ([5]; plasma, 10 mg/kg, Table 4, 24 h, mean, read-out: Plasma Mean): 164 ng/mL | concentration at 3 h ([5]; plasma, 10 mg/kg, Table 6, 3.00 h, mean, read-out: plasma Mean): 5260 ng/mL | concentration at 8 h ([5]; plasma, 10 mg/kg, Table 6, 8.00 h, mean, read-out: plasma Mean): 3430 ng/mL | concentration at 24 h ([5]; plasma, 10 mg/kg, Table 6, 24.0 h, mean, read-out: plasma Mean): 304 ng/mL | concentration at 3 h ([5]; 10 mg/kg, Table 6, 3.00 h, individual animal, read-out: plasma): 5450 ng/mL | concentration at 8 h ([5]; 10 mg/kg, Table 6, 8.00 h, individual animal, read-out: plasma): 3330 ng/mL | serum TC/TG levels and LCL-C levels [6]: significant decrease | F [1]: 75.8% | AUClast ([1]; i.v., individual animal): 95.351 µg·h/mL and 95.119 µg·h/mL | CL_obs ([1]; i.v., individual animal): 0.691 mL/min/kg and 0.859 mL/min/kg and 0.856 mL/min/kg | Cmax ([1]; i.v., individual animal): 95119 ng/mL | T1/2 ([1]; i.v., individual animal): 4.30 h and 4.77 h | Vss_obs ([1]; i.v., individual animal): 0.22 L/kg and 0.27 L/kg and 0.267 L/kg | CL_obs ([1]; i.v., mean): 0.802 mL/min/kg | Vss_obs ([1]; i.v., mean): 0.252 L/kg | AUC(0-t) [1, 7]: 119 µg·h/mL | half-life [1, 7]: 3.93 h | Cmax ([1]; mouse, in vivo, iv, individual animal, read-out: Cmax): 95400 ng/mL | AUC(0-t) ([1]; mouse, in vivo, iv, mean): 103 µg·h/mL | half-life ([1]; mouse, in vivo, iv, mean): 4.33 h | AUC(0-t) [1, 8]: 162 µg·h/mL | half-life [1, 8]: 5.01 h | Cmax [1, 9]: 26000 ng/mL | Tmax [1, 10]: 0.5 h | AUC(0-t) ([1]; mouse, in vivo, po, mean): 156 µg·h/mL | half-life ([1]; mouse, in vivo, po, mean): 4.44 h | Cmax [1, 11]: 23100 ng/mL | Tmax [1, 12]: 0.83 h | AUClast ([1]; p.o., individual animal): 176.967 µg·h/mL and 130.466 µg·h/mL | Cmax ([1]; p.o., individual animal): 23595 ng/mL and 19689 ng/mL | T1/2 ([1]; p.o., individual animal): 4.18 h and 4.13 h | Tmax ([1]; p.o., individual animal): 1.00 h | expression of CYP7α1, ME2, and LDLR genes in the liver ([2]; C57 mice, single administration, 10 mg/kg, after 24 h of administration): significantly up-regulated | DIO1 gene expression in the liver ([2]; C57 mice, single administration, after 8 and 24 h of administration, T3 0.5 mg/kg, compound 38 10 mg/kg): significantly up-regulated
